{"source": "patent EP0042596B1", "about": "“Novel adenine nucleoside derivatives, their preparation and pharmaceutical compositions containing them” (REGENTS OF THE UNIVERSITY OF MINNESOTA, priority 1980, dated 1981)", "key": {"[1]": {"conditions": "i.p."}, "[2]": {"assay": "Solubility in water at 37°C", "format": "physicochemical", "conditions": "at 37°C in water"}, "[3]": {"system": "herpes simplex virus type 2", "assay": "Genital herpes infection in female guinea pigs, suppression of lesion development (intravaginal agarose gel treatment)", "format": "in vivo", "conditions": "for animals with lesions: 5% vidarabine formulation in 0.8% agarose gel", "protocol": "The antiviral efficacy of these compounds in the treatment of genital infections in female guinea pigs was determined, the infecting virus being herpes simplex virus […]. The in vivo efficacy was measured in terms of the effect of these compounds in suppressing lesion development induced by the infecting virus. The incidence of lesions for virus-infected animals treated with the test compound was measured and compared with the results obtained for virus-infected control animals treated with placebo, or with the results obtained for untreated virus-infected animals. In the control group of animals small lesions usually appeared 3 to 4 days following infection, the virus-induced lesions reaching a maximum severity around 7 days postinfection this peak being followed by scab formation and then healing. In each case the test animals were infected by intravaginal inoculation with the herpes simplex virus type 2 in 0.1 ml of cell culture medium. 0.1 ml of a 0.8% agarose gel containing the test compound at the stated concentration was then administered intravaginally, treatment commencing (unless otherwise stated) 3 hours postinfection and the test compound being administered 3 times daily for 7 days. […] For the results given in Table 2, drug administration was commenced 6 hours postinfection and the test compound administered three times daily for 5 days."}}}
{"compound": "Nc1ncnc2c1ncn2[C@@H]1C[C@H](CO)[C@@H](O)[C@@H]1O", "note": "(racemic) [cyclaradine, 9 - [2α,3β-dihydroxy - 4α - (hydroxymethyl)cyclopent - 1 a - yl] - adenine]", "values": [{"measurement": "lethality", "setting": "[1]; dose of 900 mg/kg", "value": "not lethal"}, {"measurement": "solubility", "setting": "[2]", "value": 1, "unit": "mg/mL"}, {"measurement": "test animals had lesions", "setting": "[3]; day 7 postinfection, concentration 3%", "value": 100, "unit": "%"}, {"measurement": "test animals had lesions", "setting": "[3]; day 7 postinfection, concentration 10%", "value": 100, "unit": "%"}]}
{"compound": "COCC(=O)OC[C@H]1C[C@@H](n2cnc3c(N)ncnc32)[C@@H](O)[C@@H]1O", "note": "(racemic) [Compound B, 9-[2α,3β-dihydroxy-4α(methoxyacetoxymethyl)cyclopent-1 α-yl]adenine]", "values": [{"measurement": "signs of toxicity", "setting": "[1]; highest dose tested of 750 mg/kg", "value": "no signs of toxicity at all"}, {"measurement": "solubility", "setting": "[2]", "value": 75, "unit": "mg/mL"}, {"measurement": "animals developed virus-induced lesions", "setting": "[3]; administration commenced 6 hours postinfection, three times daily for 5 days, controls 60-90%", "value": 33, "unit": "%"}]}
{"compound": "Nc1ncnc2c1ncn2[C@@H]1O[C@H](CO)[C@@H](O)[C@@H]1O", "note": "[vidarabine, 9-(β-D-arabinofuranosyl)-adenine]", "values": [{"measurement": "animals with lesions", "setting": "[3]; day 4 postinfection", "value": 50, "unit": "%"}, {"measurement": "animals with lesions", "setting": "[3]; day 7 postinfection", "value": 80, "unit": "%"}]}
{"compound": "COCC(=O)OC[C@H]1O[C@@H](n2cnc3c(N)ncnc32)[C@@H](O)[C@@H]1O", "note": "[Compound A, 9-s-D-Arabinofuranosyladenine-5'-methoxyacetate]", "values": [{"measurement": "lesion formation", "setting": "[3]; concentration of 15% in 0.8% agarose gel, intravaginal, start 3 hours postinfection, 3 times daily for 7 days", "value": "completely suppressed lesion formation"}]}
